In paper PMC10415338, “HIV-1-induced nuclear invaginations mediated by VAP-A, ORP3, and Rab7 complex explain infection of activated T cells” (Nature Communications, 2023):

Target: T1, VOR complex (VAP-A, ORP3, Rab7); Rab7 binding to ORP3 (Homo sapiens, UniProt Q9H4L5)
T1 construct: gene OSBPL3; endogenous full-length proteins in HeLa detergent lysate, ORP3 immunoisolated with antibody D-12; with Ras-related protein Rab-7a; Vesicle-associated membrane protein-associated protein A
T1 sequence (Q9H4L5 1-887): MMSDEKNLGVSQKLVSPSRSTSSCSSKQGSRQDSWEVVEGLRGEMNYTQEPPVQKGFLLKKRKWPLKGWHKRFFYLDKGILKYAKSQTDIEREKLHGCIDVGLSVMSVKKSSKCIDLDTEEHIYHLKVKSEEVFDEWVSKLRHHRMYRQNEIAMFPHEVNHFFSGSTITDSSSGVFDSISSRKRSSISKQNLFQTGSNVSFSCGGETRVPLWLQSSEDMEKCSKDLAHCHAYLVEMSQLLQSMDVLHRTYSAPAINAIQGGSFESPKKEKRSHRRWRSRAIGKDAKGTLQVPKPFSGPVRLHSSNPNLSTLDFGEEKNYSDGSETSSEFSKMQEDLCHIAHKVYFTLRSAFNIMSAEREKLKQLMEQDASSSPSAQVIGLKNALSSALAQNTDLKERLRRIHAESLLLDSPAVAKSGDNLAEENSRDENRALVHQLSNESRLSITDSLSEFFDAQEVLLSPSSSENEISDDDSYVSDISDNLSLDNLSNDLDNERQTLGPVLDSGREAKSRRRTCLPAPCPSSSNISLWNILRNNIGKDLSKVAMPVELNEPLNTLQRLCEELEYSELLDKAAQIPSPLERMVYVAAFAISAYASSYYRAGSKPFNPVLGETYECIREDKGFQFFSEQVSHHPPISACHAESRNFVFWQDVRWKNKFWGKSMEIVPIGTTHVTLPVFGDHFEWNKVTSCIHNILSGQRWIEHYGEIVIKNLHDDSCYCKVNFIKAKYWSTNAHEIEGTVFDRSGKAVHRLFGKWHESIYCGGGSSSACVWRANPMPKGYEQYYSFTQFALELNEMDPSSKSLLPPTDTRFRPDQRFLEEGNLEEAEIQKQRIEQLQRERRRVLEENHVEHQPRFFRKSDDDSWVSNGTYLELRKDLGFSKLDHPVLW
T1 sequence (Q9P0L0 2-249 partner): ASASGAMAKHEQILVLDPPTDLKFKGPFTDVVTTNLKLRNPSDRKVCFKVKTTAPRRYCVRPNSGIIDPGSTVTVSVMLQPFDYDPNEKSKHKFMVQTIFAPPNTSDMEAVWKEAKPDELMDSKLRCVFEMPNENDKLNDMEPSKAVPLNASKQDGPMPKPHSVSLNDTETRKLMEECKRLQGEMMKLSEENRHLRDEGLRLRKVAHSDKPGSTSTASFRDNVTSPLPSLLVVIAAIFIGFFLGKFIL
Assay: ORP3 immunoisolation from drug-treated HeLa detergent lysate, Rab7/ORP3 immunoblot ratio, linear regression
Type: biochemical
Details: inhibition of Rab7 binding to ORP3 (VAP-A/ORP3); lysate with 1-10 μM compound, 30 min on ice; direct site on ORP3 ORD only cited from earlier work

Row | Structure (SMILES) | IC50 [µM]
1 | CCC(C)n1ncn(-c2ccc(N3CCN(c4ccc(OCC5COC(Cn6cncn6)(c6ccc(Cl)cc6Cl)O5)cc4)CC3)cc2)c1=O (stereo not drawn) [ICZ, cis-4[4-4-4[[2-(2-4-dichlorophenyl)-2-(1H-1,2,4,triazol-1-methyl)-1,3-dioxolan-4-yl]-1-piperazinyl]phenyl]-2,4-dihydro-2-(1-methyl-propyl)-3H-1,2,4-triazol-3-one] | 4.9
2 | CCC(C)n1ncn(-c2ccc(Cl)cc2)c1=O (centres unmarked) [PRR851] | 4.8
